In assay [1] the test system is Glycogen synthase kinase-3 alpha (Homo sapiens), P49840 [UNDEFINED MUTATION]. Put plainly: Inhibition of human GSK-3alpha S449A mutant (2 to end residues) at 10 uM using phospho GS2 peptide as substrate after 40 mins in presence of [gamma-33ATP] by scintillation counting method relative to control.
Assay [2] concerns Tyrosine-protein kinase ABL1 (Homo sapiens), P00519 [Q252H]. Put plainly: Inhibition of human ABL1 Q252H mutant (27 to end residues) assessed as residual activity at 1 uM using EAIYAAPFAKKK as substrate incubated for 40 mins in presence of [gamma-33ATP] by scintillation counting based radiometry assay relative to control.
Assay [3] has as its target Bone morphogenetic protein receptor type-1B (Homo sapiens) (UniProt O00238). Put plainly: Inhibition of human ALK6 (148 to end residues) assessed as residual activity at 1 uM using casein as substrate incubated for 40 mins in presence of [gamma-33ATP] by scintillation counting based radiometry assay relative to control.
Assay [4] has as its target Aurora kinase C (Homo sapiens) (UniProt Q9UQB9). Put plainly: Inhibition of recombinant human Aurora C (35 to end residues) assessed as residual activity at 1 uM using AKRRRLSSLRA as substrate incubated for 40 mins in presence of [gamma-33ATP] by scintillation counting based radiometry assay relative to control.
In assay [5] the target is Cyclin-dependent kinase 2/cyclin E1 (Homo sapiens) (UniProt P24864+P24941). Put plainly: Inhibition of recombinant full length human CDK2/CyclinE assessed as residual activity at 1 uM using Histone H1 as substrate incubated for 40 mins in presence of [gamma-33ATP] by scintillation counting based radiometry assay relative to control. Format: protein-complex assay.
For assay [6], the target named is CDK4/Cyclin D3 (Homo sapiens) (UniProt P11802+P30281). Put plainly: Inhibition of recombinant full length human CDK4/CyclinD3 assessed as residual activity at 1 uM using Rb fragment as substrate incubated for 40 mins in presence of [gamma-33ATP] by scintillation counting based radiometry assay relative to control. In kind it is protein-complex assay.
The target of assay [7] is CDK6/cyclin D3 (Homo sapiens) (UniProt P30281+Q00534). Put plainly: Inhibition of recombinant full length human CDK6/cyclinD3 assessed as residual activity at 1 uM using histone H1 as substrate incubated for 40 mins in presence of [gamma-33ATP] by scintillation counting based radiometry assay relative to control. In kind it is protein-complex assay.
The target in assay [8] is Serine/threonine-protein kinase Chk2 (Homo sapiens) (UniProt O96017). Put plainly: Inhibition of recombinant human CHK2 (5 to end residues) assessed as residual activity at 1 uM using KKKVSRSGLYRSPSMPENLNRPR as substrate incubated for 40 mins in presence of [gamma-33ATP] by scintillation counting based radiometry assay relative to control.
Assay [9] has as its system RAF proto-oncogene serine/threonine-protein kinase (Homo sapiens), P04049 [Y340D,Y341D]. Put plainly: Inhibition of recombinant human C-Raf Y340D/Y341D double mutant (306 to end residues) assessed as residual activity at 1 uM poly(Glu, Tyr) 4:1 as substrate incubated 40 mins in presence of [gamma-33ATP] by scintillation counting based radiometry assay relative to control.

The target of assay [10] is Ephrin type-B receptor 1 (Homo sapiens) (UniProt P54762). Put plainly: Inhibition of recombinant human EphB1 (564 to end residues) assessed as residual activity at 1 uM using KVEKIGEGTYGVVYK as substrate at 40 mins in presence of [gamma-33ATP] by scintillation counting based radiometry assay relative to control.
The test system of assay [11] is Receptor-type tyrosine-protein kinase FLT3 (Homo sapiens), P36888 [D835Y]. Put plainly: Inhibition of recombinant human FLT3 D835Y mutant (564 to end residues) assessed as residual activity at 1 uM using EAIYAAPFAKKK as substrate at 40 mins in presence of [gamma-33ATP] by scintillation counting based radiometry assay relative to control.
The target of assay [12] is Mitogen-activated protein kinase 8 (Homo sapiens) (UniProt P45983). Put plainly: Inhibition of human JNK1alpha1 assessed as residual activity at 1 uM using ATF2 as substrate after 40 mins by [gamma-33ATP] radiometric assay relative to control.
In assay [13] the target is MAP/microtubule affinity-regulating kinase 4 (Homo sapiens) (UniProt Q96L34). Put plainly: Inhibition of recombinant full length human MARK4 assessed as residual activity at 1 uM using KKKVSRSGLYRSPSMPENLNRPR as substrate incubated for 40 mins in presence of [gamma-33ATP by scintillation counting based radiometry assay relative to control.
Assay [14] has as its target Proto-oncogene tyrosine-protein kinase receptor Ret (Homo sapiens) (UniProt P07949). Put plainly: Inhibition of recombinant human Ret (658 to end residues) assessed as residual activity at 1 uM using KKKSPGEYVNIEFG as substrate measured after 40 mins in presence of [gamma33P]ATP by scintillation counting method relative to control.
In assay [15] the test system is Proto-oncogene tyrosine-protein kinase receptor Ret (Homo sapiens), P07949 [V804L]. Put plainly: Inhibition of recombinant human Ret V804L mutant (658 to end residues) assessed as residual activity at 1 uM using KKKSPGEYVNIEFG as substrate measured after 40 mins in presence of [gamma33P]ATP by scintillation counting method relative to control.
Assay [16] deals with Macrophage-stimulating protein receptor (Homo sapiens) (UniProt Q04912). Put plainly: Inhibition of recombinant human Ron (983 to end residues) assessed as residual activity at 1 uM using GGMEDIYFEFMGGKKK as substrate measured after 40 mins in presence of [gamma33P]ATP by scintillation counting method relative to control.
The target in assay [17] is SRSF protein kinase 2 (Homo sapiens) (UniProt P78362). Put plainly: Inhibition of human SRPK2 (46 to end residues) assessed as residual activity at 1 uM using RSRSRSRSRSRSRSR as substrate measured after 40 mins in presence of [gamma33P]ATP by scintillation counting method relative to control.
Assay [18] concerns the target Mitogen-activated protein kinase kinase kinase 7 (Homo sapiens) (UniProt O43318). Put plainly: Inhibition of human TAK1 (1 to 303 residues) assessed as residual activity at 1 uM using casein as substrate measured after 40 mins in presence of [gamma33P]ATP by scintillation counting method relative to control.
For assay [19], the target named is Serine/threonine-protein kinase WNK3 (Homo sapiens) (UniProt Q9BYP7). Put plainly: Inhibition of human WNK3 (1 to 434 residues) assessed as residual activity at 1 uM using myelin basic protein as substrate measured after 40 mins in presence of [gamma33P]ATP by scintillation counting method relative to control.
Assay [20] has as its target Death-associated protein kinase 3 (Homo sapiens) (UniProt O43293). Put plainly: Inhibition of human ZIPK (1 to 290 residues) assessed as residual activity at 1 uM using KKLNRTLSFAEPG as substrate measured after 40 mins in presence of [gamma33P]ATP by scintillation counting method relative to control.
For assay [21], the species on record is Homo sapiens. Put plainly: Inhibition of recombinant full-length human PI3K p110delta/p85alpha N253S mutant at 1 uM assessed as residual activity at 1 uM using phosphatidylinositol-4, 5-bisphosphate as substrate measured after 40 mins by fluorescence assay.

The term inhibition denotes how much of the control response was suppressed.

Sequence of Mitogen-activated protein kinase kinase kinase 7 (Homo sapiens) (O43318 whole entry, the tested form may be a part): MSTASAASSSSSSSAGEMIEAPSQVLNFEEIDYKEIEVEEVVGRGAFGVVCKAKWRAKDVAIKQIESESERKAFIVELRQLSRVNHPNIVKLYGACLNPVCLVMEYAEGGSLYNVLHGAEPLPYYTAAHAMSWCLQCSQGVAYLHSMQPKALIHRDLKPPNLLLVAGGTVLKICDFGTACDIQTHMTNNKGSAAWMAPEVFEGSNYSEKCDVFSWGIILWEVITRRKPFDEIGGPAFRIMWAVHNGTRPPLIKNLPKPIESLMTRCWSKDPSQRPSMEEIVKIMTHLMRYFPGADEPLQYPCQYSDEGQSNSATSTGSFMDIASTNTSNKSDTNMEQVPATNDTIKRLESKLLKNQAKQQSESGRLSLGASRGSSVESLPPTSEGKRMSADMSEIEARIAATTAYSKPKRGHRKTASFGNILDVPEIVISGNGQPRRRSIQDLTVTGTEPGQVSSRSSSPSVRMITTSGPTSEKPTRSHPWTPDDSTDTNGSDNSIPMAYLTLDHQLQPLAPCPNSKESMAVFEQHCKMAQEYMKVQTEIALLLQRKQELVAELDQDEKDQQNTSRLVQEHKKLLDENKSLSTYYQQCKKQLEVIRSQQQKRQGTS
Sequence of Ephrin type-B receptor 1 (Homo sapiens) (P54762 whole entry): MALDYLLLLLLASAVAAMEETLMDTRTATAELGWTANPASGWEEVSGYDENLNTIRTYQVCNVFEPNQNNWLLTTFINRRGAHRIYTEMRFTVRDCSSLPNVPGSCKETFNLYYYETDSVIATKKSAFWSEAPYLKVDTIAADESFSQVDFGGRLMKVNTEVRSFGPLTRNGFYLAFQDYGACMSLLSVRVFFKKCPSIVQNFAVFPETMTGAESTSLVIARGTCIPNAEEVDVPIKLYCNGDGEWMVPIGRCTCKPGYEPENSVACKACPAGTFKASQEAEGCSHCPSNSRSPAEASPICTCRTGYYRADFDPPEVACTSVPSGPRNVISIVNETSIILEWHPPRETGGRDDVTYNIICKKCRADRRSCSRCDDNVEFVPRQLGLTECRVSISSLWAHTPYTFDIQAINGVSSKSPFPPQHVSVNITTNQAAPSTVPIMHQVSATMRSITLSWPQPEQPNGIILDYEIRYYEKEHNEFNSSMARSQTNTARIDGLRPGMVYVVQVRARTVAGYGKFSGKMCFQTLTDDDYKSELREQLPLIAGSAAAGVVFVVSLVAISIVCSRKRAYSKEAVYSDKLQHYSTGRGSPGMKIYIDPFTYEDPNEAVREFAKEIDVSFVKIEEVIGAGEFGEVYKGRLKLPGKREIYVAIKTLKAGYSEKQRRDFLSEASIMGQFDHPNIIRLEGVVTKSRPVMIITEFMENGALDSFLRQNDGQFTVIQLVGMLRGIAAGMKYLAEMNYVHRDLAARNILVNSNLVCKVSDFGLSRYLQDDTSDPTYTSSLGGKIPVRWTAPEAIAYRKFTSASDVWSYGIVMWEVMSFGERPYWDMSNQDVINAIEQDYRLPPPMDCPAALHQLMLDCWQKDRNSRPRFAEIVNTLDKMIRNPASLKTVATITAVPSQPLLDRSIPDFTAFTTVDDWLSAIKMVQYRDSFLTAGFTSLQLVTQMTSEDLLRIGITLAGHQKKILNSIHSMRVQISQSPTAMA
Sequence of Glycogen synthase kinase-3 alpha (Homo sapiens), P49840 [UNDEFINED MUTATION] (P49840 whole entry, looked up, stated change not applied): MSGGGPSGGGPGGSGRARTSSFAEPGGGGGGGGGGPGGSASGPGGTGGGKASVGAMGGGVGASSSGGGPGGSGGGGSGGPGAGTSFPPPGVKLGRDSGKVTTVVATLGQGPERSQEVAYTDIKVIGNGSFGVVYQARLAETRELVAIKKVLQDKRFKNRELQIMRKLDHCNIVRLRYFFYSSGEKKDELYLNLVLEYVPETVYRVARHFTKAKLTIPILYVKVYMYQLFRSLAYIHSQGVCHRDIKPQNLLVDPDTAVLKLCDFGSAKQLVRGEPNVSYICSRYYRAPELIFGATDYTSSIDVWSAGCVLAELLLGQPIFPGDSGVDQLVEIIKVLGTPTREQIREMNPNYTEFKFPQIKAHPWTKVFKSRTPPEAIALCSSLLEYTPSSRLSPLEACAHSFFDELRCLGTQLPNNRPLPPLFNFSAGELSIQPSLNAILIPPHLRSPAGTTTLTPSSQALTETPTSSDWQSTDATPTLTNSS
Sequence of Death-associated protein kinase 3 (Homo sapiens) (O43293 whole entry, looked up, the tested form may be a part): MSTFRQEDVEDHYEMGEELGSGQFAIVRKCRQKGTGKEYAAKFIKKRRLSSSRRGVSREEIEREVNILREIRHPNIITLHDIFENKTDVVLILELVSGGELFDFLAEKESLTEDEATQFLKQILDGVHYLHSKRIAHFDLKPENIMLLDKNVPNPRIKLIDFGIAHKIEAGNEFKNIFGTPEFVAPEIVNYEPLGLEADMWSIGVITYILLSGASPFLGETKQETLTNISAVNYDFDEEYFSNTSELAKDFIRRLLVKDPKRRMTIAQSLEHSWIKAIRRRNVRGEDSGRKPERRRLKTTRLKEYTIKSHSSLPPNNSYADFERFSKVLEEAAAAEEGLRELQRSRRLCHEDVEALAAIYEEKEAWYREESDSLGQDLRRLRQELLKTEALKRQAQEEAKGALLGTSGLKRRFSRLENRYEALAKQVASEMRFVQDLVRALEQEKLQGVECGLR
Sequence of Proto-oncogene tyrosine-protein kinase receptor Ret (Homo sapiens), P07949 [V804L] (P07949 whole entry V804L): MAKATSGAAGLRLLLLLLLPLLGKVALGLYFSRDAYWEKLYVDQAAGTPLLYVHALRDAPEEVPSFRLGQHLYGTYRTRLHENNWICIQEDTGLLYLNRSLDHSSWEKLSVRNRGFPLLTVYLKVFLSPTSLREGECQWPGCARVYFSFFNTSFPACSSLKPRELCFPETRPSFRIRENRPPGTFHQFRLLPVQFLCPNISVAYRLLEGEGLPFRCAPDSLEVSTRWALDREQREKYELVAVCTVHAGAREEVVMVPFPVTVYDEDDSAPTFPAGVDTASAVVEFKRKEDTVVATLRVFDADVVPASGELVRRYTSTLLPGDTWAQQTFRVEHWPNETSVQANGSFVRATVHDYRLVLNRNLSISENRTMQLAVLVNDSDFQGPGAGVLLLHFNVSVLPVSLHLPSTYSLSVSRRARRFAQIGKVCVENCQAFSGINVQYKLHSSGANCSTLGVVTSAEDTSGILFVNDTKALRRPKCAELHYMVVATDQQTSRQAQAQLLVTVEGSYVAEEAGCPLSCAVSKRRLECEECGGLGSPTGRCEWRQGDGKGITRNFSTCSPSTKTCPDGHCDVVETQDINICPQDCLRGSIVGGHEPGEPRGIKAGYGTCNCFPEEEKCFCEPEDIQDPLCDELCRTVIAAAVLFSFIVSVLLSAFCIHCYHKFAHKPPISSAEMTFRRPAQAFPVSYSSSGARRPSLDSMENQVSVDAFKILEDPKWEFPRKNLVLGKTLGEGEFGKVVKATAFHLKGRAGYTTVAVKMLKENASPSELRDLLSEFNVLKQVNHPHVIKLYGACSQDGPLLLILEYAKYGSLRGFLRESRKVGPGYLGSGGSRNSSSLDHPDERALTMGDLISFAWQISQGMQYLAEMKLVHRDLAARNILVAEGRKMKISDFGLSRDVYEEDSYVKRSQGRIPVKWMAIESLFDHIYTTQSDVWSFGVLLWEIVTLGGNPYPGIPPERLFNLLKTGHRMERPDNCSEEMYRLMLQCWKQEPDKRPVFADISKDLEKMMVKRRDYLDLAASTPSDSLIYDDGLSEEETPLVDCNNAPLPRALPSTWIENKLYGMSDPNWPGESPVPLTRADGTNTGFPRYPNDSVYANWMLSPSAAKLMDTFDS
Sequence of Bone morphogenetic protein receptor type-1B (Homo sapiens) (O00238 whole entry): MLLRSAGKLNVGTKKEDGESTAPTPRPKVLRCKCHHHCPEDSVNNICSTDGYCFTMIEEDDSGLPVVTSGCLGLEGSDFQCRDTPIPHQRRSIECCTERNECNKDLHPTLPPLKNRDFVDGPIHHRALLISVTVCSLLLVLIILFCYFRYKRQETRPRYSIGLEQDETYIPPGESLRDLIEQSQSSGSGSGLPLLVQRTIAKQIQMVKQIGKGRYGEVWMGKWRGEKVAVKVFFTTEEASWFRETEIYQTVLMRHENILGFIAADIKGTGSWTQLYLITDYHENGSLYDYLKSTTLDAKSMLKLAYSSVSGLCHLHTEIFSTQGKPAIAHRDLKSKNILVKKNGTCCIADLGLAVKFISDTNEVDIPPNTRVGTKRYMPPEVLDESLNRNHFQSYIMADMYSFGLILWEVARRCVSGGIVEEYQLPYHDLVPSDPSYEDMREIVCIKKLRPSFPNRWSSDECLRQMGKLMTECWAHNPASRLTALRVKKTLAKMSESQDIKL
Sequence of Aurora kinase C (Homo sapiens) (Q9UQB9 whole entry): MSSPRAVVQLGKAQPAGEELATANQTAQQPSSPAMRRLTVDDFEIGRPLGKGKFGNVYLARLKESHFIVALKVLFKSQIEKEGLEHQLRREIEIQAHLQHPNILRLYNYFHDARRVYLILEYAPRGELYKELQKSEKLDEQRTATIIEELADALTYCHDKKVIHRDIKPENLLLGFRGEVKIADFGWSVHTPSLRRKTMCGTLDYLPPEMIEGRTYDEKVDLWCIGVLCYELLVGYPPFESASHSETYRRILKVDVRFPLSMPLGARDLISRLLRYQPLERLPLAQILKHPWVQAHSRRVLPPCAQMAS
Sequence of Mitogen-activated protein kinase 8 (Homo sapiens) (P45983 whole entry): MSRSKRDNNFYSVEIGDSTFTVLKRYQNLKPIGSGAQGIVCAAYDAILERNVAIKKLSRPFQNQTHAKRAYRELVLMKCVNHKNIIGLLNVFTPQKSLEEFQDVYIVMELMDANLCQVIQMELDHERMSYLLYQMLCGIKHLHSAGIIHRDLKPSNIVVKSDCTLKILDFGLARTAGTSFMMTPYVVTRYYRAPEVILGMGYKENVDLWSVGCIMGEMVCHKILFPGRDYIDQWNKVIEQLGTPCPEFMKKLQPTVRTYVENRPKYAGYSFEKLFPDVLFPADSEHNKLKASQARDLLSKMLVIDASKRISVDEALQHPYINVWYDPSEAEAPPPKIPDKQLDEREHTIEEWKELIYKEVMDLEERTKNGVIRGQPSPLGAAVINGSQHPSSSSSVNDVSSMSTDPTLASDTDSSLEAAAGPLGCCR

Consider `N=C1NC(=O)/C(=C\c2ccc(-c3cccc([N+](=O)[O-])c3)o2)S1`, for which, in [1], the inhibition came to 96%. Moreover, the Activity in assay [2] is 80%; in assay [3], 103%; in assay [4], 109%; in [5] it was 62%; in assay [6], 87%; in assay [7] it was 92%. Also, the Activity came out at 94% in assay [8]; 98% in [9]; 115% in assay [10]; 84% in assay [11]; 101% in [12]; 92% in assay [13]. Also, the Activity was found to be 92% in [14]; 97% in assay [15]; 104% in assay [16]; 82% in [17]; 92% in assay [18]; 99% in [19]. For the same compound, the Activity was found to be 93% in assay [20] and 98% in [21].
Turning to `C=CCOC(=O)c1cc(-c2ccc(/C=C3/NC(=S)NC3=O)o2)ccc1Cl`, the inhibition in [1] was determined as 93%. For the same compound, the Activity amounted to 110% in assay [2]; 90% in [3]; 104% in assay [4]; 58% in assay [5]; 98% in [6]; 84% in assay [7]. Besides, the Activity came to 92% in [8]; 85% in [9]; 102% in assay [10]; 101% in assay [11]; 99% in assay [12]; 113% in assay [13]. Also, the Activity in assay [14] was 102%; in [15], 98%; in [16] it was 106%; in [17] it was 99%; in assay [18], 100%; in assay [19] it was 102%. For the same compound, the Activity in [20] worked out at 96%; in assay [21], 94%.

Source of the values: ChEMBL document CHEMBL4334438, “Discovery of novel glycogen synthase kinase-3α inhibitors: Structure-based virtual screening, preliminary SAR and biological evaluation for treatment of acute myeloid leukemia” (Eur J Med Chem, 2019).
